Earlier results as cited in US7091196B2, “Bifunctional heterocyclic compounds and methods of making and using same” (Rib-X Pharmaceuticals, Inc., priority 2002, dated 2006).

Conditions: literature report, Gregory et al. (1989) J. Med. Chem. 32: 1673-1681

## COC(=O)c1nnn(C[C@@H]2CN(c3ccc(C(C)=O)cc3)C(=O)O2)c1C(=O)OC [Compound 6]
  activity as an antibacterial agent: inactive
